Assay results published in paper PMC9046087, “Structural basis of tethered agonism of the adhesion GPCRs ADGRD1 and ADGRF1” (Nature, 2022).
Read-outs that look alike come from different tables or passages of the source. Ends that are not written are not given here.

What was measured:
Test in all cases: BRET assay using TRUPATH biosensors, Gi activation of ADGRF1
Format in all cases: cell-based
ADGRF1 [1] = target: T1, ADGRF1 (Homo sapiens, UniProt Q5T601, L799A); settings: ADGRF1 L799^6.48bA
T1 construct: Flag (N); expressed in transfected cells; host or cells: HEK293F
T1 sequence (Q5T601 20-910 L799A): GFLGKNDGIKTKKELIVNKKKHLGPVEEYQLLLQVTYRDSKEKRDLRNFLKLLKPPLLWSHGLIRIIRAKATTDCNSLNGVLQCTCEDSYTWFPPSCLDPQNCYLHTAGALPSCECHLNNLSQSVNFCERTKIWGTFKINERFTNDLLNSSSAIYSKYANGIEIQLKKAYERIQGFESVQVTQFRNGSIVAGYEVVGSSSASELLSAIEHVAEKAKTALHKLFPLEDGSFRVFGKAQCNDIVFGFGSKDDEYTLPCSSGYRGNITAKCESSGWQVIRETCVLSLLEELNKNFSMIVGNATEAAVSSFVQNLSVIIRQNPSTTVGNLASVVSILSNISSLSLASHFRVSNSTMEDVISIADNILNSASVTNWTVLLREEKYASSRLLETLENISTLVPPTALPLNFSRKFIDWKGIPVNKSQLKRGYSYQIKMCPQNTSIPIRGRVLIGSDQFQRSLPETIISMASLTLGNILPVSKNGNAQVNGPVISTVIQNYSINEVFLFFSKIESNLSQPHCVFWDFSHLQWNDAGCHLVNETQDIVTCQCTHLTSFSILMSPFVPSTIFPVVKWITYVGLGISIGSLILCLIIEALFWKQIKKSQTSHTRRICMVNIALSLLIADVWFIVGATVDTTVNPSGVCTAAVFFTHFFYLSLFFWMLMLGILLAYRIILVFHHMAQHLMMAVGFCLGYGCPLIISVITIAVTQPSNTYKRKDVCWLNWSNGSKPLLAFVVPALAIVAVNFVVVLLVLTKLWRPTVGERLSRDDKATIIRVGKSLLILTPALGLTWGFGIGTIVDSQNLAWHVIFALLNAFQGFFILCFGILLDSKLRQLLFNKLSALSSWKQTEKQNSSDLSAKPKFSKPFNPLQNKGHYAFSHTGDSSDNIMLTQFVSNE
In short: (§1)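 HEK293F cells transiently co-transfected with wild-type or mutant receptor, Gα-RLuc8 (GαsS for Gs, Gαi1 for Gi), Gβ3 and Gγ9-GFP2 at 2:1:1:1. After 30 min at 37 °C and coelenterazine 400a, cells stimulated with synthetic stalk peptide. BRET = GFP2/RLuc8 emission, last of five readings.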

ADGRF1 [2] = target: T2, ADGRF1 (Homo sapiens, UniProt Q5T601, Q830A); settings: ADGRF1 Q830^7.49bA
T2 construct: Flag (N); expressed in transfected cells; host or cells: HEK293F
T2 sequence (Q5T601 20-910 Q830A): as the sequence (Q5T601 20-910 L799A) above, with A780L, Q811A counted along it
In short: as §1

ADGRF1 [3] = target: T3, ADGRF1 (Homo sapiens, UniProt Q5T601)
T3 construct: Flag (N); expressed in transfected cells; host or cells: HEK293F
T3 sequence (Q5T601 20-910): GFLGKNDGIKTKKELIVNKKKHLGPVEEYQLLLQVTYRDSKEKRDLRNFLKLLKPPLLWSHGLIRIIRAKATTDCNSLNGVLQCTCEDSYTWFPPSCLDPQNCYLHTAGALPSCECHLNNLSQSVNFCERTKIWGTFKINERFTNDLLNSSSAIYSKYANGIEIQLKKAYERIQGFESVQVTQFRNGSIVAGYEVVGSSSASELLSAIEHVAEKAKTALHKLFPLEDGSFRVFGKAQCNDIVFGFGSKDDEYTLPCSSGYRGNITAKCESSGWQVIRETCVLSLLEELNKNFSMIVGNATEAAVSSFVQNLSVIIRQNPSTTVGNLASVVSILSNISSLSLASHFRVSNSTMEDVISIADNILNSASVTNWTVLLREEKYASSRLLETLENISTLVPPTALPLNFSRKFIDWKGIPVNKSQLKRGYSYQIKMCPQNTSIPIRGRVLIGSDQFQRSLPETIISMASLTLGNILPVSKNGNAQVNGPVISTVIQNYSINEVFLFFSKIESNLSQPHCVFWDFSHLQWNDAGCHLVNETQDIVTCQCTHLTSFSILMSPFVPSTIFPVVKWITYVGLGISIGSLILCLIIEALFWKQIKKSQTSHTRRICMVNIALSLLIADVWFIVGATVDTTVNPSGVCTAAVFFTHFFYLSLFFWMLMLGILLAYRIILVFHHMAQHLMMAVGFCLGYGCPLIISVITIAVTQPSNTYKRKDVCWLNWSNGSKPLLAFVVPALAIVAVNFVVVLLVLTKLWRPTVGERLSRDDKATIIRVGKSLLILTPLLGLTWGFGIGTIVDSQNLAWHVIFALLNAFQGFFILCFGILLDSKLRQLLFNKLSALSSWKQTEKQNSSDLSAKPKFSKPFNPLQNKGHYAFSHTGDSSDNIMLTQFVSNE
In short: as §1

ADGRF1 [4] = target: T4, ADGRF1 (Homo sapiens, UniProt Q5T601, G702Y); settings: ADGRF1 G702^4.45bY, n = 3
T4 construct: Flag (N); expressed in transfected cells; host or cells: HEK293F
T4 sequence (Q5T601 20-910 G702Y): as the sequence (Q5T601 20-910 L799A) above, with G683Y, A780L counted along it
In short: as §1

ADGRF1 [5] = target: T5, ADGRF1 (Homo sapiens, UniProt Q5T601, V585A); settings: ADGRF1 V585^1.36bA
T5 construct: Flag (N); expressed in transfected cells; host or cells: HEK293F
T5 sequence (Q5T601 20-910 V585A): as the sequence (Q5T601 20-910 L799A) above, with V566A, A780L counted along it
In short: as §1

ADGRF1 [6] = target: T6, ADGRF1 (Homo sapiens, UniProt Q5T601, F747A); settings: ADGRF1 F747^5.36bA, n = 3
T6 construct: Flag (N); expressed in transfected cells; host or cells: HEK293F
T6 sequence (Q5T601 20-910 F747A): as the sequence (Q5T601 20-910 L799A) above, with F728A, A780L counted along it
In short: as §1

[7] = n = 3, read-out: pEC50 (mean ± s.e.m.) (converted)

TSFSILMSPFVP [pF1]
Emax (mean ± s.e.m.) (ADGRF1 [1]; n = 3): 109 ± 11 % of WT
EC50 (ADGRF1 [1]; [7]): 380 nM
Emax (mean ± s.e.m.) (ADGRF1 [2]; n = 3): 124 ± 15 % of WT
EC50 (ADGRF1 [2]; [7]): 851 nM
Emax (mean ± s.e.m.) (ADGRF1 [3]; ADGRF1 Construct 1 (structure construct), n = 4): 90 ± 13 % of WT
EC50 (ADGRF1 [3]; ADGRF1 Construct 1 (structure construct), n = 4, read-out: pEC50 (mean ± s.e.m.) (converted)): 100 nM
Emax (mean ± s.e.m.) (ADGRF1 [3]; ADGRF1 WT, n = 30): 100 ± 3 % of WT
EC50 (ADGRF1 [3]; ADGRF1 WT, n = 30, read-out: pEC50 (mean ± s.e.m.) (converted)): 61.7 nM
EC50 (ADGRF1 [4]): 1170 nM
Emax (mean ± s.e.m.) (ADGRF1 [4]): 94 ± 16 % of WT
Emax (mean ± s.e.m.) (ADGRF1 [5]; n = 3): 84 ± 8 % of WT
EC50 (ADGRF1 [5]; [7]): 437 nM
EC50 (ADGRF1 [6]): 1220 nM
Emax (mean ± s.e.m.) (ADGRF1 [6]): 80 ± 13 % of WT
